According to patent US20260258351A1, “METHOD FOR DIFFERENTIATING VISCERAL SENSORY NEURONS FROM HUMAN INDUCED PLURIPOTENT STEM CELLS” (SEOUL NATIONAL UNIVERSITY R&DB FOUNDATION, priority 2022, published 2026):

System: induced-Visceral sensory neurons (i-VSN)
Assay: Live cell calcium imaging of induced-Visceral sensory neurons after compound treatment
Format: cell-based, human
Conditions: real-time calcium imaging, FLIPR Calcium 6 Assay Kit, FIGS. 7a-7f
Description: For Live cell calcium imaging, the FLIPR Calcium 6 Assay Kit ([…], Molecular Devices) was used. The overall steps were performed according to the manufacturer's protocol. The test solution, in which components A and B were mixed, was incubated in an incubator at 37° C. for 2 hours, and during this process, the carbon dioxide concentration was maintained at 5%. Then, after treatment with a fluorescent substance, the fluorescence signal was detected for 5 minutes using an EVOS live imaging system (Thermo-Fisher) capable of maintaining a temperature of 37° C., a 5% carbon dioxide concentration, and 80% humidity. The detected signals were obtained by video or continuous snapshots (once per second). In order to confirm the functional aspect of the induced Visceral sensory neurons, the changes in the activity of the neurons were measured using a real-time calcium imaging technique after treating the Visceral sensory neurons with various compounds known to stimulate the same. A total of three compounds (i.e., liraglutide, CCK-8, and capsaicin) were used. Liraglutide corresponds to an agonist of GLP1R and is known to activate the nodose ganglion. […] CCK-8 is an agonist of the CCK receptor and is known to be able to stimulate the nodose ganglion as well. […] Capsaicin is a compound that has excitotoxicity toward TRPV1 and is known to detect pain and heat sensations in the nodose ganglion. […]

Row | Compound | change in neuron activity (calcium signal) after treatment
1 | CCK-8 | calcium signal was amplified
2 | COc1cc(CNC(=O)CCCC/C=C/C(C)C)ccc1O [Capsaicin] | induced the activity
